Source: PMC11213934, “Allosteric modulators of M1 muscarinic receptors enhance acetylcholine efficacy and decrease locomotor activity and turning behaviors in zebrafish” (Scientific Reports, 2024)
Entries after “also recorded” stand apart in the source; their conditions may differ. Marks after values point to notes of the source that are not given here.

Assays:
[1] = system: wild-type (AB) zebrafish (Danio rerio); type: in vivo; settings: compound at 10 µM relative to controls; mean ± s.e.m., N = 12
[2] = system: wild-type (AB) zebrafish (Danio rerio); experiment: animal or person; type: in vivo; settings: for Distance moved / Variance turn angle: compound at 10 µM relative to controls, mean ± s.e.m., N = 12; for MEC: locomotor behaviors
Protocol: (§1) Larval zebrafish were produced in the University of Toledo zebrafish core facility and housed in an incubator maintained at 28 °C on a 14:10 h cycle. Fish were acclimated to the testing room conditions the evening prior to testing. All testing took place during the 14 h light cycle after the lights had been on for at least 2 h.
The movement of larval zebrafish was monitored with the Noldus behavior recording system (Noldus Information Technology, Leesburg VA) and quantified using EthoVision® XT 15 software (Noldus Information Technology, Leesburg VA). Five-dpf zebrafish larvae were exposed to a range of nonlethal concentrations of compounds in a 24-well plate with appropriate controls. The plate was immediately placed in the incubator for a 30-min exposure period. After 30 min, the plate was transferred to the Noldus system and swimming behavior was recorded in 100% light for 30 min to measure spontaneous swimming behavior. The light was switched off for 10 min (dark period) and then switched on for 10 min (light period), which was then repeated for two additional cycles. In total, the larvae were exposed to three cycles of alternating 10 min dark and light periods (100% darkness-to-100% light). Each drug challenge was conducted on three separate plates with n = 6 larvae/dose/plate.
Absolute turn angle (TA) and angular velocity provided measures of the extent of turning behavior, while the intra-individual variance of turn angle quantified how consistently (low variance) or inconsistently (high variance) fish turned. A lowered intra-individual variance of turning reflected repeatedly performing the same turning behavior, a stereotypy.
All data for exposure and the behavioral end points were analyzed by one-way ANOVA (factor: drug concentration) followed by a Dunnett’s multiple comparisons test for post hoc significance between drug concentration and control group. Statistically significant differences are noted as follows; *p < 0.05; **p < 0.01; ***p < 0.001.

[3] = target: T1, human M1 muscarinic receptors (Homo sapiens, UniProt P11229); experiment: [3H]-arachidonic acid release in CHO cells expressing M1 receptors, with and without ACh (single modulator concentration, four-parameter curves); type: cell-based; parameters: expressed in transfected cells; host or cells: CHO cells stably transfected with hM1, obtained from Mark Brann's laboratory (NIH); settings: for 0.1 µM ACh: response with modulator present divided by response to ACh alone / 100 µM ACh: response with modulator present divided by response to ACh alone / No ACh: agonist effect of the allosteric ligand by itself, fraction of the maximal response that could be elicited by ACh: modulator 10 µM, CHO-hM1, mean ± s.e.m.; for No ACh: agonist effect of the allosteric ligand by itself, fraction of the maximal response that could be elicited by ACh: at least 4 determinations; for Effect on M1 receptor activity and ACh response, in words: modulators at 10 µM (amiodarone 30 µM)
T1 sequence (P11229 1-460): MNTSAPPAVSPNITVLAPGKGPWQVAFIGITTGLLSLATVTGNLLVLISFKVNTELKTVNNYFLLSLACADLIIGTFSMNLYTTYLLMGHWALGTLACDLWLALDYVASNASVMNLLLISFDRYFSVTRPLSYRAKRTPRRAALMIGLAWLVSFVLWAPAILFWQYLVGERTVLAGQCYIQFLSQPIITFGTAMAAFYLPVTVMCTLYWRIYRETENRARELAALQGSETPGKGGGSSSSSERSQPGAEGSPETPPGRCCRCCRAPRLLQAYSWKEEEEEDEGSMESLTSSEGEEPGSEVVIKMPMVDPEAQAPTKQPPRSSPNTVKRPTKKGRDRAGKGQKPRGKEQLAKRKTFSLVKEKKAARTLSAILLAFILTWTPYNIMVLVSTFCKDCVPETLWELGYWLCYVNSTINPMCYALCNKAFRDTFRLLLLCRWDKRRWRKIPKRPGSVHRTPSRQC
Protocol: CHO cells expressing human M1 muscarinic receptors were cultured at 37 °C in a 5% CO2 atmosphere in F12 medium supplemented with 5% fetal bovine serum, 100 units/ml penicillin, and 100 µg/ml streptomycin. These cells were obtained from Mark Brann’s laboratory when they were at NIH and have been in use by us and others for many years.
Measurement of [^3H]AA release was performed as described in Stahl and Ellis[24]. Stably transfected CHO-hM1 cells were seeded on 24-well plates (Greiner Bio-One GmbH, Frickenhausen, Germany) at a density of 5.0 × 10^4 cells/well in 0.5 ml of F-12 medium. Cells were incubated until they attached (approximately 3 h), followed by the addition of [^3H]AA to a final concentration of 0.05 μCi of [^3H]AA per well. The cells were then grown for 16 to 20 h before the assay was performed. [^3H]AA release was measured in Eagle’s basal medium with 20 mM HEPES and 2 mg/ml fatty acid-free bovine serum albumin (EM-BSA). Cells were rinsed twice with EM-BSA, followed by the addition of EM-BSA media containing experimental agents and incubated for 1 h at 37 °C. The assay was terminated by aspiration of the media, and the amount of [^3H]AA released was determined by liquid scintillation counting (Beckman-Coulter LS6500).
Where indicated (Fig. 2), cells were pretreated with POB to reduce the number of available receptors per cell. Stock POB was made up at 10 mM in ethanol and stored at −20C. Each well was pretreated with 0.5 ml of the appropriate concentration in PBS with 1 mM CaCl2 and 1 mM MgCl2 (PBS+ +) for 30 min at 37 °C, followed by 5 washes with PBS+ + . After pretreatment, the normal protocol follows as above.
Tabulated [^3H]AA release data are represented as a fraction of maximal release elicited by ACh or as the fraction of release elicited by the relevant concentration of ACh alone, as indicated. Dose-response curves were normalized to the maximal response of ACh without allosteric ligand. Where indicated, response curves were analyzed using the empirical four-parameter equation: Y=Top+Bottom-Top/1+X/C50^n where X is the concentration of the ligand used, Y is the amount of response, C50 is the concentration of the ligand that produces 50% of the maximal effect, Top and Bottom are the top and bottom plateaus of the curve, and n is related to the Hill slope for the curve. Where indicated, families of response curves were analyzed according to an allosteric operational model[50],[51]: Y=EM[τAA(KB+αβB)+τBBKA]/[τAA(KB+αβB)+τBBKA+AKB+KAKB+KAB+αAB] where EM is the maximal response; A is the concentration of ACh; B is the concentration of the allosteric ligand; τA and τB represent the operational efficacies of A and B, respectively; KA and KB are the equilibrium dissociation constants of A and B; and α and β represent the cooperativities between A and B in terms of binding and activation, respectively. Curve-fitting was carried out with GraphPad Prism, version 5.0 or 6.0 (San Diego CA).

[4] = system: wild-type (AB) zebrafish (Danio rerio); experiment: Maximum tolerated concentration (MTC) determination in larval zebrafish; type: in vivo; settings: after 24 h exposure; 5 dpf larvae
Protocol: as §1
Determination of maximum tolerated concentration (adapted from Berghmans)[52] was completed by placing 5 days post fertilization (dpf) wild-type zebrafish larvae in a 24 well plate at 6 fish per well, and one compound concentration per well. […] Death was determined by the absence of heartbeat. Additional endpoints were used to assess toxicity at non-lethal concentrations such as startle capacity (poke stimulus), abnormalities in swimming behavior (loss of dorsoventral balance), and gross morphological deformities (bent body). […] The MTC determination was used to select three doses of each compound (low, medium, high dose) to be used in behavioral assays.

Structure (SMILES)	Angular velocity [1] [%]	Therap. index [2]	Distance moved [2]	Variance turn angle [2]	MEC [2] [µM]	0.1 µM ACh: response with modulator present divided by response to ACh alone [3]	100 µM ACh: response with modulator present divided by response to ACh alone [3]	No ACh: agonist effect of the allosteric ligand by itself, fraction of the maximal response that could be elicited by ACh [3]	MTC (maximum tolerated concentration) [4] [µM]	Effect on M1 receptor activity and ACh response, in words [3]
COc1ccc(CN2C(=O)C(=O)c3ccccc32)cc1F [Compound 8h, 1-(3-fluoro-4-methoxybenzyl)indoline-2,3-dione]	201.4 ± 27.5	10	52.7 ± 6.6*** %	148.0 ± 12.4*** %	3	1.32 ± 0.10	0.97 ± 0.06	0.05 ± 0.03	30	–
O=C1C(=O)N(Cc2cc(F)c(F)c(F)c2)c2ccccc21 [Compound 8i, 1-(3,4,5-trifluorobenzyl)indoline-2,3-dione]	412.1 ± 28.7	10	11.6 ± 1.2*** %	146.1 ± 16.1** %	1	1.47 ± 0.12	1.04 ± 0.02	0.06 ± 0.01	10	–
COc1ccc(CN2C(=O)C(=O)c3ccccc32)cc1I [Compound 8b, 1-(3-iodo-4-methoxybenzyl)indoline-2,3-dione]	175.3 ± 19.0	10	52.7 ± 6.6*** %	143.0 ± 13.5** %	1	2.13 ± 0.08	1.24 ± 0.01	0.08 ± 0.01	10	–
CCCCc1oc2ccc(NS(C)(=O)=O)cc2c1C(=O)c1ccc(OCCCN(CCCC)CCCC)cc1 [Dronedarone, reference compound]	172.8 ± 25.7	1	28.3 ± 5.3*** %	141.6 ± 12.5*** %	10	0.25 ± 0.05	0.75 ± 0.07	0.08 ± 0.01	10	–
CCCCc1oc2ccccc2c1C(=O)c1ccc(OC)cc1 [Compound 6a, (2-butylbenzofuran-3-yl)(4-methoxyphenyl)methanone]	95.9 ± 13.3	–	115.4 ± 11.7%	115.8 ± 13.0%	> 3	1.37 ± 0.07	1.06 ± 0.04	0.05 ± 0.01	3	inactive
CCN(CC)CCOc1c(Br)cc(CN2C(=O)C(=O)c3ccccc32)cc1Br.Cl [Compound 8l, 1-(3,5-dibromo-4-(2-(diethylamino)ethoxy)benzyl)indoline-2,3-dione hydrochloride]	184.7 ± 17.0	1	33.5 ± 4.4** %	166.1 ± 12.5*** %	10	0.10 ± 0.07	0.86 ± 0.04	0.05 ± 0.01	10	only decreased ACh activity; also recorded: decreased ACh potency with little impact on ACh efficacy
COc1ccc(CN2C(=O)C(=O)c3ccccc32)cc1Br [Compound 8d, 1-(3-bromo-4-methoxybenzyl)indoline-2,3-dione]	201.4 ± 27.5	100	38.4 ± 4.5*** %	170.2 ± 15.1*** %	1	1.57 ± 0.06	0.90 ± 0.03	0.04 ± 0.01	100	–
O=C1C(=O)N(Cc2ccc(O)cc2)c2ccccc21 [Compound 10, 1-(4-hydroxybenzyl)indoline-2,3-dione]	131.2 ± 13.4	3.3	72.4 ± 8.6* %	135.3 ± 13.5* %	3	1.42 ± 0.24	0.92 ± 0.06	0.01 ± 0.01	10	–
